According to patent publication US20220387357A1, “Method of Dosing a Pain Therapeutic” (priority 2021, published 2022):
Like-named read-outs stand apart in the source and are kept apart here.

What was measured:
[1] = Acute pain tail-flick assay, side-by-side mice studies; assay type: in vivo; conditions: side-by-side comparison, similar to opioids
CB1 receptors = CB1 receptors (Homo sapiens, UniProt P21554); conditions: mediated through CB1 receptors; cited from earlier work
[2] = assay type: in vivo, human
Description: Tachycardia was the most common adverse event (AE) in this study, reported in 5 of 48 subjects (10%) following active treatment and in no subjects following placebo; all of the treatment-emergent AEs (TEAEs) of tachycardia were deemed related to study treatment.
The Toxicity Grading Scale for Healthy Adult and Adolescent Volunteers Enrolled in Preventative Vaccine Clinical Trials criteria for tachycardia are defined as follows: […]
Severe (Grade 3): >130 bpm
In this study, tachycardia was dose limiting at a level >130 bpm.

[3] = Nonclinical studies of analgesia compared with morphine; assay type: in vivo
[4] = Preclinical animal models of pain; assay type: in vivo; conditions: acute pain, visceral pain, fibromyalgia, diabetic peripheral neuropathy, sciatica, chemotherapy induced pain, osteoarthritis models
Description: (§1) Nevertheless, CMX-020 may produce adverse side effects when given at improper dosages. Methods of administrating an effective amount of the compound CMX-020 to produce an analgesia effective, while still being within a safe and tolerable dose, is both necessary and desirable.

[5] = assay type: in vivo, humans
Description: as §1

[6] = Subject 0048, 0.24 mg/kg 15-minute infusion
[7] = Subject 0057, 0.32 mg/kg 30-minute infusion
[8] = following active treatment, all dose levels

CB1 receptors, sequence (P21554 whole entry): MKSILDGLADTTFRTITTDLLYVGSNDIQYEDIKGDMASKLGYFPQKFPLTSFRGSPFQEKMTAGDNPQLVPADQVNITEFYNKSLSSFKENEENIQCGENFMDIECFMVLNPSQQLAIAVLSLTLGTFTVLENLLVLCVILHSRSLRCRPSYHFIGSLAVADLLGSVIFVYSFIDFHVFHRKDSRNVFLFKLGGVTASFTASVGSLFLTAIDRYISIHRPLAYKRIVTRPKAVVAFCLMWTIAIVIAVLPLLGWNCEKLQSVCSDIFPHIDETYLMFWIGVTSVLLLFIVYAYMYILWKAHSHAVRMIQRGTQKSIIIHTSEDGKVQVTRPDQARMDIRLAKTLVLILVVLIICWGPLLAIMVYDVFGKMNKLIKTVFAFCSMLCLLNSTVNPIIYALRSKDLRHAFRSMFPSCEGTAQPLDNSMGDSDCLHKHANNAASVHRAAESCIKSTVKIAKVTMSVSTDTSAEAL

CCCCC/C=C\C/C=C\C/C=C\C/C=C\CCCC(=O)Nc1ccc(O)cc1 [AM404, reference compound]
Analgesic efficacy in the acute pain tail-flick assay [1]: highest level of analgesic efficacy | Anticonvulsant action (CB1 receptors): anticonvulsant action mediated through CB1 receptors

CCCCCC(=O)N(CCC=C=CCCCC=C=CCC=C=CCCCC(=O)NC1CC1)C(C)C [CMX-020]
Number of elevated heart rate assessed as clinically significant ([2]; 0.32 mg/kg and 0.24 mg/kg 15-minute infusion groups compared with the other dose levels and placebo): higher number | Doses at which tachycardia was reported ([2]; 0.32 mg/kg and 0.24 mg/kg 15 minutes infusion and 0.32 mg/kg 30 minute infusion): only at the three highest doses | Time of peak heart rate following the start of treatment administration ([2]; Subject 0033, 0.32 mg/kg 15-minute infusion): 16 min | Heart rate after decrease ([2]; Subject 0033, 0.32 mg/kg 15-minute infusion, 15 minutes following the peak heart rate): 113 bpm | Peak Pulse ([2]; Subject 0033, Cohort 5, 0.32 mg/kg 15-minute infusion): 138 bpm | Time of peak heart rate following the start of dose administration ([2]; Subject 0036, 0.32 mg/kg 15-minute infusion): 16 min | Heart rate after decrease ([2]; Subject 0036, 0.32 mg/kg 15-minute infusion, 15 minutes following the start of treatment administration (so in the source)): 101 bpm | Peak Pulse ([2]; Subject 0036, Cohort 5, 0.32 mg/kg 15-minute infusion): 110 bpm | Time of elevated heart rate following the start of dose administration ([2]; Subject 0045, 0.24 mg/kg 15-minute infusion): 11 min | Heart rate after decrease ([2]; Subject 0045, 0.24 mg/kg 15-minute infusion, 10 minutes following the start of treatment administration (so in the source)): 109 bpm | Peak Pulse ([2]; Subject 0045, Cohort 6, 0.24 mg/kg 15-minute infusion (discontinued, total dose received 0.156 mg/kg)): 156 bpm | Time of TEAE of tachycardia following start of treatment administration [2, 6]: 11 min | Time of peak heart rate following start of treatment administration [2, 6]: 16 min | Heart rate after decrease ([2]; Subject 0048, 0.24 mg/kg 15-minute infusion, 15 minutes following the peak heart rate): 103 bpm | Peak Pulse ([2]; Subject 0048, Cohort 6, 0.24 mg/kg 15-minute infusion): 109 bpm | Time of TEAE of tachycardia following start of treatment administration [2, 7]: 16 min | Time of peak heart rate following start of treatment administration [2, 7]: 20 min | Heart rate after decrease ([2]; Subject 0057, 0.32 mg/kg 30-minute infusion, 20 minutes following the peak heart rate): 97 bpm | Peak Pulse ([2]; Subject 0057, Cohort 8, 0.32 mg/kg 30-minute infusion): 110 bpm | Time of peak in elevated heart rate following the start of treatment administration ([2]; cohorts 5 and 6, 15-minute infusions): 11 to 16 min | Time of peak in elevated heart rate ([2]; cohorts 7 and 8, 30-minute infusions): approximately 30 minutes | Incidence of tachycardia (adverse event) [2, 8]: 10% | Subjects reporting tachycardia (adverse event) [2, 8]: 5 of 48 | Analgesic efficacy in the acute pain tail-flick assay [1]: highest level of analgesic efficacy | Analgesia compared with morphine [3]: analgesia equivalent to that achieved by morphine | Pain response in animal models of pain [4]: effectively reduce the pain response | Efficacy in proof-of-concept trial in sciatic pain ([5]; humans, sciatic pain): indicated efficacy | Safety when administered to humans ([5]; intravenous and oral formulations, several dose levels): demonstrated the safety
